Data taken from patent US20250304549A1, “HYDROXYAMIDE DERIVATIVE AND USE THEREOF” (SICHUAN HUIYU PHARMACEUTICAL CO., LTD., priority 2022, published 2025).
Counter-ions that a name gives are not always drawn.

Tests used:
HDAC8 = HDAC8 (Homo sapiens (Human), UniProt Q9BY41); assay: In vitro enzyme inhibition assay - HDAC (HDAC-Glo I/II), HDAC8; assay type: biochemical; settings: read-out: HDAC IC50 (nM) HDAC 8
How it was run: (§1)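 Inhibition was measured with the HDAC-Glo I/II luminescent assay, testing compound as an 8-point, 5-fold dilution series from a 1 mM DMSO stock. Luminescence (RLU) was normalized to no-inhibitor and no-enzyme controls, and IC50 was derived by four-parameter variable-slope fitting.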

NCI-H1417 cells = assay: In vitro cell inhibition assay - H1417 cell proliferation (CellTiter-Glo); assay type: cell-based
How it was run: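 Cells exposed to 8 compound concentrations (5-fold dilutions) in BEGM with 10% FBS for 7 days at 37° C., 5% CO2. Viable cells measured by CellTiter-Glo luminescence; inhibition versus no-inhibitor and no-cell controls, IC50 fitted.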

pan-HDAC = assay: In vitro enzyme inhibition assay - HDAC (HDAC-Glo I/II), pan-HDAC; assay type: biochemical
How it was run: as §1

HDAC1 = HDAC1 (Homo sapiens (Human), UniProt Q13547); assay: In vitro enzyme inhibition assay - HDAC (HDAC-Glo I/II), HDAC1; assay type: biochemical; settings: read-out: HDAC IC50 (nM) HDAC 1
Chain of HDAC1 (Q13547 whole entry): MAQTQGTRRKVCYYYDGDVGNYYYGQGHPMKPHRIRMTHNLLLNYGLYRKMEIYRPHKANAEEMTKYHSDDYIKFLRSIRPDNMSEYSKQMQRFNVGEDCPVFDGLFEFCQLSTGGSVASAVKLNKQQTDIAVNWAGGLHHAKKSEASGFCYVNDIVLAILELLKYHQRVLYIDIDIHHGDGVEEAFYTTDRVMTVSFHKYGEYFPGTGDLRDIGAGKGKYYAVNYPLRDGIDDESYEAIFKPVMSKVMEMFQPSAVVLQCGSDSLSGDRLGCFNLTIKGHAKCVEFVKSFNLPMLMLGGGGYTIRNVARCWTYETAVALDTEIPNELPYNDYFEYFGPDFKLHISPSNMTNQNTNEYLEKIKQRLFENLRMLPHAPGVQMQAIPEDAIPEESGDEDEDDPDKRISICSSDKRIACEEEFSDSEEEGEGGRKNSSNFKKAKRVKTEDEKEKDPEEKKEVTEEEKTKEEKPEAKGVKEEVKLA
Procedure: 2. In Vitro Enzyme Inhibition Assay—HDAC
The effect of the compound on the enzymatic activity of pan-HDAC and two isoforms (HDAC1 and HDAC8) was examined using the HDAC-Glo I/II Assay and Screening System assay to assess the level of inhibition of HDAC protease activity and selectivity in each isoform. The proteins and detection reagents were from the HDAC-Glo™ I/II Assay and Screening System (Promega). A 1 mM stock solution of the compound was prepared in DMSO and diluted in a 5-fold gradient to create a series of 8 concentrations, and a specific volume of the highest concentration was diluted 25 times with HDAC Buffer to obtain 4× working solution of the compound. […] The 384-well plate was then read on a multifunctional microplate reader, with the Luminescence channel selected to record Luminescence values (RLU). The inhibition rate was calculated using the following formula: […]
Note: ‘Negative’ refers to the group without the inhibitor; ‘Blank’ refers to the group without the enzyme.
The IC50 value was calculated by fitting the inhibition rate by GraphPad Prism software, employing log (inhibitor) vs. response-Variable Slope (four parameters) model.

LSD1 = LSD1 (Homo sapiens (Human), UniProt O60341); assay: In vitro enzyme inhibition assay - LSD1 (HTRF); assay type: biochemical
NCI-H69 cells = assay: In vitro cell inhibition assay - NCI-H69 cell proliferation (CellTiter-Glo); assay type: cell-based
How it was run: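 Over 7 days at 37° C. and 5% CO2, cells grew in RPMI-640 supplemented with 20% FBS in the presence of eight 5-fold-spaced compound concentrations.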

DU145 cells = assay: In vitro cell inhibition assay - DU145 cell proliferation (CellTiter-Glo); assay type: cell-based
How it was run: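 Viability read-out was CellTiter-Glo luminescence after a 6-day, 37° C exposure of DU145 cells (1×10^3/well, 10% FBS RPMI-640) to 8 compound concentrations in 5-fold steps.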

NCI-H526 cells = assay: In vitro cell inhibition assay - NCI-H526 cell proliferation (CellTiter-Glo); assay type: cell-based; settings: H526 small cell lung cancer cell proliferation, 5 days
How it was run: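 NCI-H526 cells plated at 1×10^3 per well overnight, then treated with 8 concentrations (5-fold dilutions) in RPMI-640 with 10% FBS for 5 days at 37° C., 5% CO2. Viable cells quantified by CellTiter-Glo luminescence; IC50 fitted from inhibition rates relative to no-inhibitor and no-cell controls.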

[1] = Homo sapiens, NCI-H1417, H1417 small cell lung cancer cell proliferation
[2] = Homo sapiens, NCI-H69, H69 small cell lung cancer cell proliferation
[3] = H1417 small cell lung cancer cell proliferation

Chain of HDAC8 (Q9BY41 whole entry): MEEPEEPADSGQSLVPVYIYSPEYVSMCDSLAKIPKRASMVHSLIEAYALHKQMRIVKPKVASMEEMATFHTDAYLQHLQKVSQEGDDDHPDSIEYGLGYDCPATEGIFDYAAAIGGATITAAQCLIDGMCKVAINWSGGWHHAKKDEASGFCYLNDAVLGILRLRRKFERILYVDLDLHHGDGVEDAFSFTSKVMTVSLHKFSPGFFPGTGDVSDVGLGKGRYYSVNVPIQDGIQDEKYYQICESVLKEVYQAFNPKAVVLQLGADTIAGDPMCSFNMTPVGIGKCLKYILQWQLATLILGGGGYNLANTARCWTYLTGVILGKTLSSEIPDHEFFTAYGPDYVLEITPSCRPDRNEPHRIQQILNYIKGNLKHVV

COc1ccc(-c2c(OCCCCCCC(=O)NO)cc(N3CCC(N)CC3)nc2-c2ccc(C#N)c(F)c2)cc1O [Example 1, 7-((6-(4-aminopiperidin-1-yl)-2-(4-cyano-3-fluorophenyl)-3-(3-hydroxy-4-methoxyphenyl)pyridin-4-yl)oxy)-N-hydroxyheptanamide hydrochloride]
IC50 (HDAC8): 215 nM | IC50 (NCI-H1417 cells; [1]): 216 nM | IC50 (pan-HDAC): 17.5 nM | IC50 (HDAC1): 68.1 nM

COc1ccc(-c2c(OCc3ccc(/C=C/C(=O)NO)cc3)cc(N3CCC(N)CC3)nc2-c2ccc(C#N)c(F)c2)cc1O [Example 2, (E)-3-(4-(((6-(4-Aminopiperidin-1-yl)-2-(4-cyano-3-fluorophenyl)-3-(3-hydroxy-4-methoxyphenyl)pyridin-4-yl)oxy)methyl)phenyl)-N-hydroxyacrylamide hydrochloride]
IC50 (HDAC8): 289 nM | IC50 (NCI-H1417 cells; [1]): 51.9 nM | IC50 (LSD1): 1.58 nM | IC50 (NCI-H69 cells; [2]): 7890 nM | IC50 (pan-HDAC): 66.9 nM | IC50 (HDAC1): 92.3 nM

COc1ccc(-c2c(-c3ccc(C#N)c(F)c3)nc(N3CCC(N)CC3)n3ccnc23)cc1OCCCCCCC(=O)NO [Example 20, 7-(5-(5-(4-aminopiperidin-1-yl)-7-(4-cyano-3-fluorophenyl)imidazo[1,2-c]pyrimidin-8-yl)-2-methoxyphenoxy)-N-hydroxyheptanamide hydrochloride]
IC50 (HDAC8): 446 nM | IC50 (NCI-H1417 cells; [1]): 845 nM | IC50 (LSD1): 16.9 nM | IC50 (pan-HDAC): 96.5 nM | IC50 (HDAC1): 311 nM

N#Cc1ccc(-c2nc(N3CCC(N)CC3)n3ccnc3c2-c2ccc(OCCCCCCC(=O)NO)c(O)c2)cc1F [Example 21, 7-(4-(5-(4-Aminopiperidin-1-yl)-7-(4-cyano-3-fluorophenyl)imidazo[1,2-c]pyrimidin-8-yl)-2-hydroxyphenoxy)-N-hydroxyheptanamide hydrochloride]
IC50 (HDAC8): 275 nM | IC50 (NCI-H1417 cells; [1]): 65 nM | IC50 (LSD1): 0.05 nM | IC50 (pan-HDAC): 119 nM | IC50 (HDAC1): 400 nM

N#Cc1ccc(-c2nc(N3CCC(N)CC3)n3ccnc3c2-c2ccc(OCc3ccc(/C=C/C(=O)NO)cc3)c(O)c2)cc1F [Example 23, (E)-3-(4-(4-(5-(4-Aminopiperidin-1-yl)-7-(4-cyano-3-fluorophenyl)imidazo[1,2-c]pyrimidin-8-yl)-2-hydroxyphenoxy)methyl)phenyl)-N-hydroxyacrylamide hydrochloride]
IC50 (HDAC8): 320 nM | IC50 (NCI-H1417 cells; [1]): 1.55 nM | IC50 (LSD1): 0.23 nM | IC50 (NCI-H69 cells; [2]): 760 nM | IC50 (pan-HDAC): 74.4 nM | IC50 (HDAC1): 198 nM

CNC1CCN(c2ncc(-c3ccc(OCCCCCCC(=O)NO)c(O)c3)c(-c3ccc(C#N)c(F)c3)c2C#N)CC1 [Example 24, 7-(4-(5-cyano-4-(4-cyano-3-fluorophenyl)-6-(4-(methylamino)piperidin-1-yl)pyridin-3-yl)-2-hydroxyphenoxy)-N-hydroxyheptanamide hydrochloride]
IC50 (HDAC8): 118 nM | IC50 (NCI-H1417 cells; [1]): 42.3 nM | IC50 (LSD1): 0.41 nM | IC50 (pan-HDAC): 5.83 nM | IC50 (HDAC1): 8.28 nM

COc1cc(N2CCC(N)CC2)nc(-c2ccc(C#N)c(F)c2)c1-c1ccc(/C=C/C(=O)NO)c(O)c1 [Example 28, (E)-3-(4-(6-(4-Amino-piperidin-1-yl)-2-(4-cyano-3-fluorophenyl)-4-methoxypyridin-3-yl)-2-hydroxyphenyl)-N-hydroxyacrylamide formate]
IC50 (HDAC8): 2330 nM | IC50 (NCI-H1417 cells; [1]): 25.5 nM | IC50 (LSD1): 0.64 nM | IC50 (pan-HDAC): 270 nM | IC50 (HDAC1): 608 nM

COc1cc(N2CCC(N)CC2)nc(-c2ccc(C#N)c(F)c2)c1-c1ccc(OC/C=C/C(=O)NO)c(O)c1 [Example 29, (E)-4-(4-(6-(4-Amino-piperidin-1-yl)-2-(4-cyano-3-fluorophenyl)-4-methoxypyridin-3-yl)-2-hydroxyphenoxy)-N-hydroxybut-2-enamide hydrochloride]
IC50 (HDAC8): 696 nM | IC50 (NCI-H1417 cells; [1]): 92.2 nM | IC50 (LSD1): 0.96 nM | IC50 (NCI-H69 cells; [2]): 3200 nM | IC50 (pan-HDAC): 66.9 nM | IC50 (HDAC1): 123 nM

Cc1ccc(-c2c(-c3ccc(C#N)c(F)c3)nc(N3CCC(NCCCCCCC(=O)NO)CC3)n3ccnc23)cc1O [Example 34, 7-(1-(7-(4-cyano-3-fluorophenyl)-8-(3-hydroxy-4-methylphenyl)imidazo[1,2-c]pyrimidin-5-yl)piperidin-4-yl)amino)-N-hydroxyheptanamide Hydrochloride]
IC50 (HDAC8): 353 nM | IC50 (NCI-H1417 cells; [3]): 140 nM | IC50 (LSD1): 1.13 nM | IC50 (pan-HDAC): 552 nM | IC50 (HDAC1): 1060 nM

CNC1CCN(c2ncc(-c3ccc(NCc4ccc(C(=O)NO)cc4)c(O)c3)c(-c3ccc(C#N)c(F)c3)c2C#N)CC1 [Example 39, 4-((4-(4-(5-Cyano-4-(4-cyano-3-fluorophenyl)-6-(4-(methylamino)piperidin-1-yl)pyridin-3-yl)-2-hydroxyphenyl)amino)methyl)-N-hydroxybenzamide hydrochloride]
IC50 (HDAC8): 207 nM | IC50 (NCI-H1417 cells; [1]): 5.2 nM | IC50 (LSD1): 0.15 nM | IC50 (NCI-H69 cells; [2]): 2390 nM | IC50 (pan-HDAC): 167 nM | IC50 (HDAC1): 335 nM

Cc1ccc(-c2c(-c3ccc(C#N)c(F)c3)nc(N3CCC(NC(=O)CCCCCCC(=O)NO)CC3)n3ccnc23)cc1O [Example 56, N^1-(1-(7-(4-cyano-3-fluorophenyl)-8-(3-hydroxy-4-methylphenyl)imidazo[1,2-c]pyrimidin-5-yl)piperidin-4-yl)-N^8-hydroxyoctanediamide hydrochloride]
IC50 (HDAC8): 893 nM | IC50 (NCI-H1417 cells; [1]): 5.4 nM | IC50 (LSD1): 91.5 nM | IC50 (NCI-H69 cells; [2]): 1280 nM | IC50 (pan-HDAC): 467 nM | IC50 (HDAC1): 642 nM

N#Cc1ccc(-c2c(-c3ccc(NC(=O)CCCCCCC(=O)NO)c(O)c3)cnc(N3CCC(N)CC3)c2C#N)cc1F [Example 58, N^1-(4-(6-(4-aminopiperidin-1-yl)-5-cyano-4-(4-cyano-3-fluorophenyl)pyridin-3-yl)-2-hydroxyphenyl)-N^8-hydroxyoctanediamide hydrochloride]
IC50 (HDAC8): 136 nM | IC50 (NCI-H1417 cells; [1]): 46.3 nM | IC50 (LSD1): 0.1 nM | IC50 (NCI-H69 cells; [2]): 3000 nM | IC50 (pan-HDAC): 31.9 nM | IC50 (HDAC1): 47.4 nM

COc1ccc(-c2cnc(N3CCC(NCc4ccc(/C=C/C(=O)NO)nc4)CC3)c(C#N)c2-c2ccc(C#N)c(F)c2)cc1O [Example 117, (E)-3-(5-((1-(3-Cyano-4-(4-cyano-3-fluorophenyl)-5-(3-hydroxy-4-methoxyphenyl)pyridin-2-yl)piperidin-4-yl)amino)methyl) pyridin-2-yl)-N-hydroxyacrylamide formate]
IC50 (HDAC8): 13 nM | IC50 (NCI-H1417 cells; [3]): 1.7 nM | IC50 (LSD1): 0.36 nM | IC50 (DU145 cells; Du145 prostate cancer cell proliferation): 10.4 nM | IC50 (NCI-H69 cells; H69 small cell lung cancer cell proliferation): 4.21 nM | IC50 (pan-HDAC): 0.8 nM | IC50 (NCI-H526 cells): 4.54 nM

COc1ccc(-c2cnc(N3CCC(NCc4ccc5cc(C(=O)NO)sc5c4)CC3)c(C#N)c2-c2ccc(C#N)c(F)c2)cc1O [Example 126, 6-(1-(3-Cyano-4-(4-cyano-3-fluorophenyl)-5-(3-hydroxy-4-methoxyphenyl)pyridin-2-yl)piperidin-4-yl)amino)methyl)-N-hydroxybenzothio phene-2-carboxamide formate]
IC50 (HDAC8): 132 nM | IC50 (NCI-H1417 cells; [1]): 1.76 nM | IC50 (LSD1): 1.11 nM | IC50 (DU145 cells; Homo sapiens, DU-145, Du145 prostate cancer cell proliferation): 715 nM | IC50 (NCI-H69 cells; [2]): 284 nM | IC50 (pan-HDAC): 197 nM | IC50 (NCI-H526 cells; Homo sapiens, NCI-H526, 120 h): 280 nM

COc1ccc(-c2cnc(N3CCC(NCc4ccc(/C=C/C(=O)NO)nc4)CC3)c(CC#N)c2-c2ccc(C#N)c(F)c2)cc1O [Example 217, (E)-3-(5-(((1-(4-(4-cyano-3-fluorophenyl)-3-(cyanomethyl)-5-(3-hydroxy-4-methoxyphenyl)pyridin-2-yl)piperidin-4-yl)amino)methyl)pyridin-2-yl)-N-hydroxyacrylamide formate]
IC50 (NCI-H1417 cells; [1]): 5.06 nM | IC50 (LSD1): 13.6 nM | IC50 (NCI-H69 cells; [2]): 11.1 nM | IC50 (pan-HDAC): 0.25 nM | IC50 (HDAC1): 0.73 nM | IC50 (NCI-H526 cells; Homo sapiens, NCI-H526, 120 h): 20.9 nM
